Assay results taken from patent publication US20230099367A1 (VERSITECH LIMITED, priority 2019, published 2023).
Values belong to the compound of their own block, whether it stands above or below them. Ends that are not written are not given here.

Assays:
human SCTR = biological target: T1, human SCTR (Homo sapiens, UniProt P47872); test: In vitro Lance cAMP assay in CHO cells overexpressing human SCTR; format: cell-based
T1 construct: expressed in transfected cells; host or cells: CHO cells
Description: As SCTR is known to have cAMP as the secondary messenger, therefore to study receptor activation, the concentration of cAMP is measured by the help of Lance cAMP assay using the assay kit from PerkinElmer, as per the standardized protocol in our lab. […] Additionally, the cells upon transfection were used for the extraction of total RNA (TriPure reagent, Invitrogen) to confirm the receptor's expression.
The selected compounds were procured from TargetMol and chemicalbook.com. […] The five compounds were then used for analyzing their dose-dependent response on the SCTR to verify their effect on the receptor.

SCTR = biological target: T2, SCTR (Mus musculus, UniProt Q5FWI2); test: Ex vivo cAMP assay on isolated mouse tissues; parameters: species or system mice (C57); details: isolated C57 mouse tissues; secretin 1 μM, KSD179019 100 μM
T2 construct: low expression levels of the intrinsic receptor; from tissue; host or cells: duodenum, pancreas, cerebellum and kidney of C57 mice
Source text: Various tissues were collected from C57 mice and were washed three times with ice-cold HBSS (Invitrogen). Tissues were minced and weighed equally into four parts. […] After drug treatment, the tissues were homogenized for measuring the concentration of the cAMP by the Lance cAMP assay kit.

plasma vasopressin = test: Plasma vasopressin after intracerebroventricular injection; format: in vivo, C57 mice; details: i.c.v.; secretin 500 ng/5 μl, KSD179019 260 ng/5 μl; 0-60 min; vs ACSF
Description: The complete protocol was performed as reported in our lab. Mice were implanted with the stainless-steel cannula with a projection to the lateral ventricular region (bregma: 0.5 mm, lateral: 1.0 mm and depth: 2.0 mm). The mice were allowed to recover for at least 5 days after the surgery. […] ACSF alone was used as a vehicle control. After drug treatment, blood was collected from the jugular vein at 0, 15, 30, 45 and 60 min. Plasma samples were collected from the whole blood by centrifugation at 4000×g for 10 min at 4° C. The samples were then used for the quantification of vasopressin by the help of ELISA using a commercial kit from (Phoenix Pharmaceuticals, Inc.) according to manufacturer instruction.

blood pressure [1] = test: Blood pressure in spontaneously hypertensive rats (DSI telemetry); format: in vivo, spontaneously hypertensive rat (SHR)
Description: Anti-hypertensive action of KSD179019 was analyzed by continues monitoring of the blood pressure and heart rate on spontaneously hypertensive rat (SHR) by using DSI telemetric implantation. DSI device was surgically implanted using the methodology described before. […] We used conventional combination therapy i.e. Azilsartan (Az; 0.3 μg/g BW) and Chlorthalidone (CLT; 1 μg/g BW) for the comparison with […]. Az is an angiotensin II receptor antagonist and CLT is a diuretic compound. Both these compounds are commonly used in the treatment of hypertension either individually and in combination. The dosing of the combination of Az+CLT on SHR rats is used as documented in previous publications. For blood pressure monitoring, telemetric device by DSI was used, using the implantation methodology mentioned earlier.

[2] = system: salmonella strains (TA98, TA100, TA1535 and TA1537) and combination of two E.coli strains (uvrA and pKM101); test: Ames test for mutagenicity (OECD-471)
Description: In vitro and in vivo toxicity testing was performed. All these test were performed using the OECD guidelines. […] The MTT assay was performed on liver cells (HepG2 cell line) and kidney cells (HEK293 cell line) as they are the major organs effected by drug toxicity. […] Additionally, the potential carcinogenicity of this drug is tested according to OECD-471 (Ames test) using the commercially available kit from XENOMETRIX. The mutation effect of the drug was tested in salmonella strains (TA98, TA100, TA1535 and TA1537) and on the combination of two E.coli strains (uvrA and pKM101) (FIGS. 8a; 8b; 8c; 8d and 8e). […] Additionally, as the drug's secondary metabolite can also have carcinogenic effect, the Ames test was performed in presence of liver enzymes which can cause the formation of secondary metabolites (S9 liver extract) (FIGS. 9a; 9b; 9c; 9d and 9e). […] The animal testing was done under an animal license from the Laboratory Animal Unit (LAU) of the University of Hong Kong for testing at acute, sub-chronic and chronic levels of exposure. The study was done based on the OECD-423 guidelines. […] Major organs like brain, heart, liver, kidney, intestine, and colon were collected and analysed. […]
In vitro and in vivo toxicity testing was performed. […] Major organs like brain, heart, liver, kidney, intestine, and colon were collected and analysed. […]

[3] = Acute oral toxicity over 14 days (OECD-423), LD50 estimation; format: in vivo, C57BL/6J mice
Description: In vitro and in vivo toxicity testing was performed. All these test were performed using the OECD guidelines. […] The MTT assay was performed on liver cells (HepG2 cell line) and kidney cells (HEK293 cell line) as they are the major organs effected by drug toxicity. […] Additionally, the potential carcinogenicity of this drug is tested according to OECD-471 (Ames test) using the commercially available kit from XENOMETRIX. The mutation effect of the drug was tested in salmonella strains (TA98, TA100, TA1535 and TA1537) and on the combination of two E.coli strains (uvrA and pKM101) (FIGS. 8a; 8b; 8c; 8d and 8e). […] Additionally, as the drug's secondary metabolite can also have carcinogenic effect, the Ames test was performed in presence of liver enzymes which can cause the formation of secondary metabolites (S9 liver extract) (FIGS. 9a; 9b; 9c; 9d and 9e). […] The animal testing was done under an animal license from the Laboratory Animal Unit (LAU) of the University of Hong Kong for testing at acute, sub-chronic and chronic levels of exposure. The study was done based on the OECD-423 guidelines. […] The test was done on 6 animals in two batches in both males and females. The body weight change remained under 2 grams (FIG. 11) which is normal growth for 9 weeks old C57BL/6J (https://www.jax.org/jax-mice-and-services/strain-data-sheet-pages/body-weight-chart-000664#). […] The animals were subjected to histological analysis post sacrificing on day 14. Major organs like brain, heart, liver, kidney, intestine, and colon were collected and analysed. […] However, in order to determine a dose for sub-chronic and chronic studies, according to OECD recommendations, 3 animals were administered 5000 mg/kg BW of drug in a single administration. […] During the 14 day observation the animals remained healthy with no change in body weight and body temperature (FIG. 13).
In vitro and in vivo toxicity testing was performed. All tests were performed using the OECD guidelines. […] The MTT assay was performed on liver cells (HepG2 cell line) and kidney cells (HEK293 cell line) as they are the major organs effected by drug toxicity. […] Additionally, the potential carcinogenicity of this drug is tested according to OECD-471 (Ames test) using the commercially available kit from XENOMETRIX. The mutation effect of the drug was tested in salmonella strains (TA98, TA100, TA1535 and TA1537) and on the combination of two E.coli strains (uvrA and pKM101) (FIGS. 19a; 19b; 19c; 19d and 19e). […] Additionally, as the drug's secondary metabolite can also have carcinogenic effect, the Ames test was performed in presence of liver enzymes which can cause the formation of secondary metabolites (S9 liver extract) (FIGS. 20a; 20b; 20c; 20d and 20e). […] The animal testing was done under an animal license from the Laboratory Animal Unit (LAU) of the University of Hong Kong for testing at acute, sub-chronic and chronic levels of exposure. The study was done based on the OECD-423 guidelines. […] The test was done on 6 animals in two batches in both males and females. The body weight change remained under 2 grams (FIG. 21) which is normal growth for 9 weeks old C57BL/6J (https://www.jax.org/jax-mice-and-services/strain-data-sheet-pages/body-weight-chart-000664#). […] The animals were subjected to histological analysis post sacrificing on day 14. Major organs like brain, heart, liver, kidney, intestine, and colon were collected and analysed. […] However, in order to determine a dose for sub-chronic and chronic studies, according to OECD recommendations, 3 animals were administered 5000 mg/kg BW of drug in a single administration. […] During the 14 day observation the animals remained healthy with no change in body weight and body temperature (FIG. 23).

blood pressure [4] = test: Blood pressure after intraperitoneal secretin (DSI telemetry); format: in vivo, C57 mice; details: secretin 0.5 μg/g BW intraperitoneal; 5 min post administration
Description: The DSI telemetric device was implanted using the standardized protocol from our lab. Post recovery, blood pressure measurements, and drug administration were initiated. […] The heart rate and blood pressure were measured continually up to 150 min post-injection time.

[5] = in vivo; cited from earlier work
[6] = 14 days after 2000 mg/kg BW oral

T1 sequence (P47872 23-440): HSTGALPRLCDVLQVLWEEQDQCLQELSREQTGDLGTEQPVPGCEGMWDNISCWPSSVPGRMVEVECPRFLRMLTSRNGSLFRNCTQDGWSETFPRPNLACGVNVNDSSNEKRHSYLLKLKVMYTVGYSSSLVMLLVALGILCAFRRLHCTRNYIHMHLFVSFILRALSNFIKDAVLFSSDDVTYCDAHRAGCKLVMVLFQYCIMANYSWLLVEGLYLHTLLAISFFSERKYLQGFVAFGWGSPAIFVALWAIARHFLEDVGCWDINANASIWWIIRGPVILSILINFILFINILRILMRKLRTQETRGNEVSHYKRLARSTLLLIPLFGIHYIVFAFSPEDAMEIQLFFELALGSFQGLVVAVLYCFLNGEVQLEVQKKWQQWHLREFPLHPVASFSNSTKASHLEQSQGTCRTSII
T2 sequence (Q5FWI2 29-447): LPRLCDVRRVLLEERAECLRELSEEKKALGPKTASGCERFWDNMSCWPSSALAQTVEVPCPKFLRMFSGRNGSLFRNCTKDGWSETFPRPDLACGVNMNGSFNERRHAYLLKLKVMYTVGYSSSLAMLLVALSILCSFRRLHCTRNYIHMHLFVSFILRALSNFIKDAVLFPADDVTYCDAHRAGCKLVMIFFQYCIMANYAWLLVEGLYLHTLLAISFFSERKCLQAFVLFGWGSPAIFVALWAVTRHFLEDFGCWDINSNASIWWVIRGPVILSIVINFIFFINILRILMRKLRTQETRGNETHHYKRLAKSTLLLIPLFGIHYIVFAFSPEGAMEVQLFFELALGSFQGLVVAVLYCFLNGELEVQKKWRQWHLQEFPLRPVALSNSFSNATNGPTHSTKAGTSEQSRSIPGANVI

Compound: c1ccc2c(Oc3nc(Nc4ccc(N5CCOCC5)cc4)c4ncn(C5CCCCC5)c4n3)cccc2c1 [KSD179019, puromorphamine]
efficacy, % of maximal cAMP (of secretin) (human SCTR; SCT with KSD179019 (100 μM), maximal cAMP by SCT at 1 μM): 131.9%
cAMP concentration compared to basal level (agonist screening) (human SCTR; compound 100 μM, CHO cells overexpressing human SCTR): low but statistically significant increase in cAMP concentration
cAMP response together with secretin (antagonist screening) (human SCTR; compound (10 μM in FIG. 6 legend, 100 μM elsewhere in the source) with 1 μM secretin): potentiated the effect of secretin with significantly higher cAMP response
dose-dependent effect on secretin cAMP stimulation (human SCTR; different secretin concentrations plus KSD179019 100 μM): dose-dependent potentiation of secretin on cAMP stimulation
cAMP production from duodenum, cerebellum and pancreas (SCTR): able to stimulate cAMP production
plasma Vp (vasopressin) concentration (plasma vasopressin): significant increase in plasma Vp
hypotensive effect, times longer than combination therapy (Az and CLT) (blood pressure [1]; SHR rats): 3 times
hypotensive effect, times longer than secretin peptide (blood pressure [1]; SHR rats): 360 times
time that reduction in blood pressure lasted significantly (blood pressure [1]; SHR, 0.26 μg/g BW tail vein (FIG. 12C)): up to 20 hours
blood pressure reduction (blood pressure [1]; SHR, 0.26 μg/g BW tail vein injection, vs saline): consistent blood pressure reduction
drop in blood pressure at peak (blood pressure [1]; SHR, KSD179019, peaked at 40 hours): 10%
reduction in mean arterial blood pressure (blood pressure [1]; SHR, intravenous 0.26 μg/g BW, up to 60 hours post administration): approximately 10%
reduction of MABP (blood pressure [1]; SHR, intravenous, at 40 and 60 hours (FIG. 13B, N=2)): 10%
time window of statistically significant drops in diastolic and systolic blood pressure (blood pressure [1]; SHR, oral 30, 50 and 80 mg/kg BW (FIG. 17)): 20 to 50 h
time window of statistically significant drops in diastolic and systolic blood pressure (blood pressure [1]; SHR, tail-vein 0.26 μg/g body weight (FIG. 16)): 20 to 50 h
duration of hypotensive effect post administration (blood pressure [1]; SHR, until blood pressure recovered / effect still observed): up to 60 hours
carcinogenic potential of drug or metabolites, Ames test ([2]; in presence of S9 liver extract): no carcinogenic potential
mutation effect, Ames test ([2]; without S9 liver extract): No mutational effect
fatal or toxic effects ([3]; 5000 mg/kg BW single administration, 14 day observation): no fatal or toxic effects were observed
overall health of animals ([3]; 14 day after single oral dose of 2000 mg/kg BW): no effect on the overall health of animals
body temperature [3, 6]: remained constant
body weight change [3, 6]: under 2 grams
histological analysis of major organs (necrosis) ([3]; day 14, brain, heart, liver, kidney, intestine, colon, 2000 mg/kg BW): None of these organs were observed to have any signs of necrosis
LD50 ([3]; single oral administration, male and female mice, estimated, no fatality at 2000 mg/kg BW): 2000-5000 mg/kg BW

cAMP production from duodenum, cerebellum and pancreas (SCTR): able to stimulate cAMP production
Compound: CC(C)C[C@H](NC(=O)CNC(=O)[C@H](CCC(N)=O)NC(=O)[C@H](CC(C)C)NC(=O)[C@H](CC(C)C)NC(=O)[C@H](CCCNC(=N)N)NC(=O)[C@H](CCC(N)=O)NC(=O)[C@H](CC(C)C)NC(=O)[C@H](CCCNC(=N)N)NC(=O)[C@H](C)NC(=O)CNC(=O)[C@H](CCC(=O)O)NC(=O)[C@H](CCCNC(=N)N)NC(=O)[C@H](CC(C)C)NC(=O)[C@H](CCCNC(=N)N)NC(=O)[C@H](CO)NC(=O)[C@H](CC(C)C)NC(=O)[C@H](CCC(=O)O)NC(=O)[C@H](CO)NC(=O)[C@@H](NC(=O)[C@H](Cc1ccccc1)NC(=O)[C@@H](NC(=O)CNC(=O)[C@H](CC(=O)O)NC(=O)[C@H](CO)NC(=O)[C@@H](N)Cc1c[nH]cn1)[C@@H](C)O)[C@@H](C)O)C(=O)N[C@H](C(N)=O)C(C)C [secretin, reference compound]
plasma Vp (vasopressin) concentration (plasma vasopressin): significant increase in plasma Vp
systolic and diastolic blood pressure drop (blood pressure [4]): blood pressure drop was significant
duration of blood pressure reduction (blood pressure [1]; intravenous injection of secretin peptide): approximately 10 min
half-life in circulation [5]: approximately 2 min

Compound: ChiRhoStim: synthetic secretin peptide analog
half-life in circulation [5]: 45 min

Compound: SecreFlo: synthetic secretin peptide analog (HSDGTFTSELSRLRDSARLQRLLQGLV; ends and bridges not checked; UniProt P63298 33-59, looked up)
half-life in circulation [5]: 20 min
